This is an account of results in paper PMC10525585, “Evaluation of the Antibacterial Effect of Aurone-Derived Triazoles on Staphylococcus aureus” (Antibiotics, 2023).

One data set deals with pre-formed MSSA biofilms. Put plainly: Biofilm assay (BacLight live/dead confocal imaging). In kind it is cell-based, Staphylococcus aureus. Particulars: for Fold Change in Dead Cells / Fold Change in Total Cells / Percent Change in Dead Cells / Percent Change in Total Cells: versus mock-treated control; for Dead Cell Count / Living Cell Count / Total Cell Count: 48 h biofilm treated 24 h with 100 µM AT; for Dead Cell Count: control 96; for Living Cell Count: control 2124; for Total Cell Count: control 2220. How it is done: To prepare AT-treated cultures, overnight bacterial cultures were used (adjusted to 1 × 10^8 CFU/mL) in BHI medium to grow biofilm in 35 mm MatTEK dishes with a 20 mm glass bottom well by adding 1500 µL of overnight bacteria per dish. The dishes were incubated at 37 °C in a humidified incubator for 48 h. The old media was refreshed by adding 1500 µL of BHI for the control, or the AT mixture (15 µL of AT stock with 1485 µL BHI to achieve 100 µM AT concentration), or DMSO mixture (15 µL DMSO with 1485 µL BHI) for negative control. The dishes were then incubated in a humidified incubator for an additional 24 h at 37 °C. The media was removed, and cells were washed twice with 500 µL PBS, followed by the addition of 50 µL BacLight^TM with 250 µL PBS for 15 min. Biofilms were imaged using a Zeiss AxioObserver microscope with an LSM700 confocal module (Carl Zeiss Microscopy, White Plains, NY, USA). To assess biofilm disruption, Fiji software version 2.14.0 was used. Initially, raw microscope images were imported, separating the color channels, as dead cells were stained fluorescent red and living cells were stained green. To allow particle counts, the color saturation threshold was set using the RenyiEntropy option to clear the images from potential noise. This step was followed by watershed separation, which separates potentially overlapping cells, and then particle analysis was completed using the 0.5–1.5 micron size as a guide. Biofilm disruption was quantified both by reductions in total bacterial cell numbers and increases in dead cell numbers.

Data set [1] can be described thus: Cytotoxicity assay (PrestoBlue). The settings on record: human, HeLa cells (ATCC CCL-2). On the procedure:
Human HeLa epithelial (ATCC CCL-2) and HepG2 liver epithelial (ATCC HB-8065) cell lines were used to determine toxicity of AT compounds for mammalian cells. The cells were grown in a complete culture medium of RPMI 1640 with 10% heat-inactivated fetal bovine serum (FBS) at 37 °C in 5% CO2 (95% room air) in a humidified incubator. Before use, attached cell monolayers, which had reached at least 90% confluency, were detached by trypsinization with trypsin-EDTA (0.25%) and resuspension in fresh complete culture media. For experiments, the stock concentration of 1 × 10^5 cells/mL (to achieve a final 1 × 10^4 cells/well concentration) was achieved by counting the trypsinized cells and adjusting to their final concentration for assays.
HeLa or HepG2 cells were pre-seeded into a 96-well transparent, flat bottom plate by adding a volume of 100 µL stock cell concentration (1 × 10^5 cells/mL) in complete culture media to each well. The plate was incubated overnight at 37 °C in a 5% CO2 (95% room air) humidified incubator. After the incubation and before mixing in the AT compounds, a 100 µL volume of fresh complete culture media was added to the pre-seeded wells. The 2-fold dilutions of AT compounds in triplicates were prepared on a separate 96-well plate. Once the dilution plate was prepared, dilutions were transferred into the pre-seeded plate to achieve the same concentrations of ATs as for the inhibition assay described above. The final inoculated plate was then returned to the 5% CO2 (95% room air) humidified incubator for an additional 24 h of incubation with the diluted ATs. Controls were blank wells containing only media, wells with cells and DMSO in complete culture media, and wells with cells and complete culture media only. Measurement of toxicity was analogous to the inhibition assay except that 20 µL of PrestoBlue^TM was used and the incubation was 3–6 h before reading with the plate-reader. Cytotoxicity concentration (CC50) was defined as the concentration where half of the cells remained viable and was computed using GraphPad Prism.

The subject of a further data set is MSSA. Put plainly: Checkerboard assay with antibiotics. It is filed as cell-based, Staphylococcus aureus. Particulars: smallest ratio; <0.5 synergy, 0.5–4 no interaction, >4 antagonism. How it is done: (§1) This preparation for the checkerboard assay was analogous to the antibacterial assay described above in that the standard (5 × 10^5 CFU/mL) concentration of bacteria in media was mixed with 2-fold dilutions of antibacterial agents to verify their inhibition potential. […] Control wells contained 10 µL of bacteria with 90 µL of CAMHB, and the negative control was bacteria in 1% DMSO and CAMHB. Incubation, staining with PrestoBlue^TM, and assessing cell viability are as described for the antibacterial assay above.

Another data set deals with MRSA. The data set is described as follows: Checkerboard assay with antibiotics. In kind it is cell-based, Staphylococcus aureus. Particulars: smallest ratio; <0.5 synergy, 0.5–4 no interaction, >4 antagonism. On the procedure:
as §1

Data set [2] concerns HepG2 (ATCC HB-8065) cells. The data set is described as follows: Cytotoxicity assay (PrestoBlue). Particulars: Table 1 and text; 24 h incubation; read-out: CC50 (µM) HepG2. It is filed as cell-based, Human.
Data set [3] can be described thus: Cytotoxicity assay (PrestoBlue). In kind it is cell-based, Human. The settings on record: human, HepG2 cells (ATCC HB-8065), Table 1 and text; 24 h incubation.
The mark [4] stands for this setting: CC50 (µM) HeLa, Table 1 and text, 24 h incubation.

Regarding `O=C(c1ccccc1O)c1n[nH]nc1-c1ccc(Cl)cc1` [AT106], in the data set on pre-formed MSSA biofilms (100 µM AT, 24 h), the “Fold Change in Dead Cells” value was -0.75, the “Fold Change in Total Cells” value is -0.8914, the “Percent Change in Dead Cells” value was -75.00% and the “Percent Change in Total Cells” value is on record as -89.14%. Besides, in the data set with pre-formed MSSA biofilms, the “Dead Cell Count” value was found to be 24, the “Living Cell Count” value stood at 217 and the “Total Cell Count” value stood at 241. The molecule further had a cytotoxic concentration (CC50) at 24 h in data set [1] (setting [4]) of over 60 µM. In data set [1] (CC50 HeLa (µM), Table S1), this molecule came in with a CC50 at 24 h of 16.2 µM. In the data set with MSSA, the “FICi with Daptomycin, MSSA” value was determined as 0.25 and the “FICi with Vancomycin, MSSA” value is recorded as 0.57. In the data set on MRSA, the “FICi with Daptomycin, MRSA” value is 0.05 and the “FICi with Vancomycin, MRSA” value was determined as 0.52. Further, in data set [2], the cytotoxic concentration (CC50) worked out at 70.7 µM. In data set [3], this molecule registered a 50% cytotoxic concentration (CC50) at 24 h of over 60 µM.

Regarding `O=C(c1ccccc1O)c1n[nH]nc1-c1cccc(C(F)(F)F)c1` [AT116], in the data set on pre-formed MSSA biofilms (100 µM AT, 24 h), the “Fold Change in Dead Cells” value is 2.417, the “Fold Change in Total Cells” value is listed as -0.4212, the “Percent Change in Dead Cells” value amounted to 241.67% and the “Percent Change in Total Cells” value was -42.12%. In the data set on pre-formed MSSA biofilms, the “Dead Cell Count” value is 328, the “Living Cell Count” value amounted to 957 and the “Total Cell Count” value was 1285. Also, the “disruption of MSSA biofilms” value with pre-formed MSSA biofilms (pre-formed biofilm, 100 µM AT, 24 h) is given as “successfully disrupted MSSA biofilms”. The molecule further showed a CC50 at 24 h in data set [1] (setting [4]) of 56.8 µM. The molecule also had a CC50 at 24 h in data set [1] (CC50 HeLa (µM), Table S1) of 11.7 µM. For the same molecule, the “FICi with Daptomycin, MSSA” value in the data set on MSSA turned out to be 0.28. Also, in the data set with MRSA, the “FICi with Daptomycin, MRSA” value is 0.05 and the “FICi with Vancomycin, MRSA” value amounted to 1.03. In data set [3], this molecule yielded a CC50 at 24 h of 50.9 µM.

As for `O=C(c1ccccc1O)c1n[nH]nc1-c1ccc(Br)s1` [AT137], in the data set on pre-formed MSSA biofilms (100 µM AT, 24 h), the “Fold Change in Dead Cells” value is -0.8021, the “Fold Change in Total Cells” value is -0.9347, the “Percent Change in Dead Cells” value is given as -80.21% and the “Percent Change in Total Cells” value is -93.47%. Also, in the data set with pre-formed MSSA biofilms, the “Dead Cell Count” value amounted to 19, the “Living Cell Count” value is given as 126 and the “Total Cell Count” value was 145. This molecule returned a half-maximal cytotoxic concentration (CC50) at 24 h in data set [1] (setting [4]) of 2.84 µM. Also, the CC50 at 24 h in data set [1] (CC50 HeLa (µM), Table S1) was found to be 12.7 µM. For the same molecule, in the data set on MSSA, the “FICi with Daptomycin, MSSA” value is given as 0.38 and the “FICi with Vancomycin, MSSA” value worked out at 1.5. Also, in the data set with MRSA, the “FICi with Daptomycin, MRSA” value is 0.19 and the “FICi with Vancomycin, MRSA” value was 1.13. For the same molecule, the half-maximal cytotoxic concentration (CC50) at 24 h in data set [3] came to 39.8 µM.
